Measurements published in PubChem BioAssay AID2060508 (Molecular Pharmacology Branch, DTP, NCI, 2025).

Test system: 454973-116-R2-J3-PDC spheroids, viability, % test/control
Experiment: Anticancer human tumor 454973-116-R2-J3-PDC patient-derived pancreatic carcinoma cell line growth inhibition [GQUAD]
Settings: spheroids with HUVEC and MSC; for IC50: curve of first compound; for viability, T/C: stronger effect = lower value
How it was run: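 Multi-cell-type spheroids of tumor cells with HUVEC and mesenchymal stem cells, treated with drug combinations. Concentrations descend in half-log steps from near clinical Cmax, or from 10 microM where Cmax is unknown; viability read-out.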

[1] = second compound 0.0316 µM, first compound 0.0316 µM
[2] = second compound 0.0316 µM, first compound 0.1 µM
[3] = second compound 0.0316 µM, first compound 0.316 µM
[4] = second compound 0.0316 µM, first compound 1 µM
[5] = second compound 0.0316 µM, first compound 3.16 µM
[6] = second compound 0.0316 µM, first compound 10 µM
[7] = second compound 0.1 µM, first compound 0.0316 µM
[8] = second compound 0.1 µM, first compound 0.1 µM
[9] = second compound 0.1 µM, first compound 0.316 µM
[10] = second compound 0.1 µM, first compound 1 µM
[11] = second compound 0.1 µM, first compound 3.16 µM
[12] = second compound 0.1 µM, first compound 10 µM
[13] = second compound 0.316 µM, first compound 0.0316 µM
[14] = second compound 0.316 µM, first compound 0.1 µM
[15] = second compound 0.316 µM, first compound 0.316 µM
[16] = second compound 0.316 µM, first compound 1 µM
[17] = second compound 0.316 µM, first compound 3.16 µM
[18] = second compound 0.316 µM, first compound 10 µM
[19] = second compound 1 µM, first compound 0.0316 µM
[20] = second compound 1 µM, first compound 0.1 µM
[21] = second compound 1 µM, first compound 0.316 µM
[22] = second compound 1 µM, first compound 1 µM
[23] = second compound 1 µM, first compound 3.16 µM
[24] = second compound 1 µM, first compound 10 µM
[25] = second compound 3.16 µM, first compound 0.0316 µM
[26] = second compound 3.16 µM, first compound 0.1 µM
[27] = second compound 3.16 µM, first compound 0.316 µM
[28] = second compound 3.16 µM, first compound 1 µM
[29] = second compound 3.16 µM, first compound 3.16 µM
[30] = second compound 3.16 µM, first compound 10 µM
[31] = second compound 10 µM, first compound 0.0316 µM
[32] = second compound 10 µM, first compound 0.1 µM
[33] = second compound 10 µM, first compound 0.316 µM
[34] = second compound 10 µM, first compound 1 µM
[35] = second compound 10 µM, first compound 3.16 µM
[36] = second compound 10 µM, first compound 10 µM
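Also: spheroids exposed to compounds for seven days.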
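For viability, T/C in this document: 100% = DMSO vehicle control viability.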

CC(C)n1c(=O)n(C)c2cnc3cc(F)c(-c4ccc(OCCCN5CCCCC5)nc4)cc3c21 + Cc1[nH]c2ccc(F)cc2c1-c1nc2c3cccnc3c3ncccc3c2[nH]1
IC50 (second compound 0.0316 µM): > 10 µM | IC50 (second compound 0.1 µM): > 10 µM | IC50 (second compound 0.316 µM): > 10 µM | IC50 (second compound 1 µM): > 10 µM | IC50 (second compound 3.16 µM): > 10 µM | IC50 (second compound 10 µM): > 10 µM | viability, T/C [1]: 112% | viability, T/C [2]: 101% | viability, T/C [3]: 105% | viability, T/C [4]: 101% | viability, T/C [5]: 95.8% | viability, T/C [6]: 67.5% | viability, T/C [7]: 95.8% | viability, T/C [8]: 107% | viability, T/C [9]: 109% | viability, T/C [10]: 102% | viability, T/C [11]: 92.5% | viability, T/C [12]: 63.7% | viability, T/C [13]: 110% | viability, T/C [14]: 99% | viability, T/C [15]: 111% | viability, T/C [16]: 117% | viability, T/C [17]: 83.9% | viability, T/C [18]: 65% | viability, T/C [19]: 94.8% | viability, T/C [20]: 101% | viability, T/C [21]: 112% | viability, T/C [22]: 93.3% | viability, T/C [23]: 85.2% | viability, T/C [24]: 61.5% | viability, T/C [25]: 89.1% | viability, T/C [26]: 101% | viability, T/C [27]: 96.8% | viability, T/C [28]: 97.5% | viability, T/C [29]: 96% | viability, T/C [30]: 66% | viability, T/C [31]: 101% | viability, T/C [32]: 91.9% | viability, T/C [33]: 88.3% | viability, T/C [34]: 93.7% | viability, T/C [35]: 79.9% | viability, T/C [36]: 59.7%

CC1COCCN1c1cc(C2(O)CC3CCC(C2)O3)c2cnn(-c3ccn[nH]3)c2n1 (stereo unspecified) + Cc1[nH]c2ccc(F)cc2c1-c1nc2c3cccnc3c3ncccc3c2[nH]1
IC50 (second compound 0.0316 µM): 0.155 µM | IC50 (second compound 0.1 µM): 0.141 µM | IC50 (second compound 0.316 µM): 0.163 µM | IC50 (second compound 1 µM): 0.14 µM | IC50 (second compound 3.16 µM): 0.143 µM | IC50 (second compound 10 µM): 0.115 µM | viability, T/C [1]: 95.9% | viability, T/C [2]: 62.1% | viability, T/C [3]: 29.9% | viability, T/C [4]: 21.7% | viability, T/C [5]: 24.1% | viability, T/C [6]: 12.3% | viability, T/C [7]: 87% | viability, T/C [8]: 58.9% | viability, T/C [9]: 28.9% | viability, T/C [10]: 21.3% | viability, T/C [11]: 21.8% | viability, T/C [12]: 10.4% | viability, T/C [13]: 91.6% | viability, T/C [14]: 66.4% | viability, T/C [15]: 27.7% | viability, T/C [16]: 20% | viability, T/C [17]: 21.6% | viability, T/C [18]: 13.5% | viability, T/C [19]: 93.5% | viability, T/C [20]: 58.1% | viability, T/C [21]: 30.6% | viability, T/C [22]: 19.9% | viability, T/C [23]: 21.8% | viability, T/C [24]: 13.2% | viability, T/C [25]: 88.5% | viability, T/C [26]: 58.3% | viability, T/C [27]: 31.7% | viability, T/C [28]: 21.8% | viability, T/C [29]: 21.6% | viability, T/C [30]: 12.6% | viability, T/C [31]: 79.5% | viability, T/C [32]: 53.6% | viability, T/C [33]: 26.2% | viability, T/C [34]: 22.4% | viability, T/C [35]: 20.3% | viability, T/C [36]: 12.6%

O=C(c1cc(Cc2n[nH]c(=O)c3ccccc23)ccc1F)N1CCN(C(=O)C2CC2)CC1 + Cc1[nH]c2ccc(F)cc2c1-c1nc2c3cccnc3c3ncccc3c2[nH]1
IC50 (second compound 0.0316 µM): > 10 µM | IC50 (second compound 0.1 µM): > 10 µM | IC50 (second compound 0.316 µM): > 10 µM | IC50 (second compound 1 µM): > 10 µM | IC50 (second compound 3.16 µM): > 10 µM | IC50 (second compound 10 µM): > 10 µM | viability, T/C [1]: 98.5% | viability, T/C [2]: 89.7% | viability, T/C [3]: 101% | viability, T/C [4]: 100% | viability, T/C [5]: 79.8% | viability, T/C [6]: 60.8% | viability, T/C [7]: 109% | viability, T/C [8]: 97.3% | viability, T/C [9]: 93.2% | viability, T/C [10]: 94.6% | viability, T/C [11]: 94.9% | viability, T/C [12]: 58.1% | viability, T/C [13]: 97.6% | viability, T/C [14]: 103% | viability, T/C [15]: 93% | viability, T/C [16]: 91.7% | viability, T/C [17]: 77.6% | viability, T/C [18]: 58.1% | viability, T/C [19]: 97.2% | viability, T/C [20]: 99.8% | viability, T/C [21]: 87.5% | viability, T/C [22]: 88% | viability, T/C [23]: 75.8% | viability, T/C [24]: 65.5% | viability, T/C [25]: 87.4% | viability, T/C [26]: 107% | viability, T/C [27]: 84% | viability, T/C [28]: 87.7% | viability, T/C [29]: 77.6% | viability, T/C [30]: 63.3% | viability, T/C [31]: 94.1% | viability, T/C [32]: 81.4% | viability, T/C [33]: 90.9% | viability, T/C [34]: 79.6% | viability, T/C [35]: 73.2% | viability, T/C [36]: 61.5%
